The record followed here is US7517517B2 (Janssen Pharmaceutica N.V., priority 2002, dated 2009).

Structures are written as SMILES. Values joined by “and” are separate entries in the source; they are usually repeats but may differ in a detail not shown here. Equal entries are not always repeated. Structures can show the parent of a compound that is named as a salt.

T1 sequence (P23385 19-1199): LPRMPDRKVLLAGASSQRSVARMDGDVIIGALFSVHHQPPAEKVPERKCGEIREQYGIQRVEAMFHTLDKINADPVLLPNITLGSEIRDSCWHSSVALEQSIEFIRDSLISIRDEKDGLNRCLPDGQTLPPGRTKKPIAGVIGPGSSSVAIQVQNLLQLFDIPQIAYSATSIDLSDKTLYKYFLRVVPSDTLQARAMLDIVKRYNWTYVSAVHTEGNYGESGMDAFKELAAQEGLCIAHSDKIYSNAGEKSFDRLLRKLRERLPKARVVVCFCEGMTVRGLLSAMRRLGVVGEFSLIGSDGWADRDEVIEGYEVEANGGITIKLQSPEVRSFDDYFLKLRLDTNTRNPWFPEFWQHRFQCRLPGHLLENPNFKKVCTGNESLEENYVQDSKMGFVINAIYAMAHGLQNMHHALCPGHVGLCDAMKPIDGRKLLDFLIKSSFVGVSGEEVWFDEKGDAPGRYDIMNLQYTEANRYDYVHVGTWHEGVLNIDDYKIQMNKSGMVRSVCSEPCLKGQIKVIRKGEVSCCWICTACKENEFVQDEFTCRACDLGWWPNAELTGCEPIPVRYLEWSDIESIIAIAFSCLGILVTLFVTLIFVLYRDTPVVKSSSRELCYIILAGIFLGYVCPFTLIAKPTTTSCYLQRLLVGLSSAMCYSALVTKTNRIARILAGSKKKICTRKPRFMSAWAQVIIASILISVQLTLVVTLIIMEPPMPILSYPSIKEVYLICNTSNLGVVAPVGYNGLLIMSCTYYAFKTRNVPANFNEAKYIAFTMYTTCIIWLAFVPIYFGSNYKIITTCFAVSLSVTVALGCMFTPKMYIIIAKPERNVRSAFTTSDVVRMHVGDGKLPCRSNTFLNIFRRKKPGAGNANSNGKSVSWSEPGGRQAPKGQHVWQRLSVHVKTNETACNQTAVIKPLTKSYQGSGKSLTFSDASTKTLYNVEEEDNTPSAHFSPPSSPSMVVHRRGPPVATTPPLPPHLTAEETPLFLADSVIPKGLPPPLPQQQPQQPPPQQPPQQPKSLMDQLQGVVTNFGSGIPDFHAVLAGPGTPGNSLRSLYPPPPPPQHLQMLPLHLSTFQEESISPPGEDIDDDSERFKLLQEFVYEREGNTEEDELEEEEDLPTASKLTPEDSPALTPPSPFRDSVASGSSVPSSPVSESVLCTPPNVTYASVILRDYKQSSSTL

One series addresses T1, cloned rat mGlu1 receptor (Rattus norvegicus, UniProt P23385).
T1 construct: expressed in transfected cells; host or cells: CHO cells
Briefly: Signal transduction at the cloned rat mGlu1 receptor in CHO cells (glutamate-induced Ca2+ rise, FLIPR). It counts as cell-based. As to conditions: 50% inhibition of the glutamate-induced intracellular Ca2+ rise; CHO cells, FLIPR.
On to `Cc1cc2nc3c(cc2cc1C(=O)Cc1ccccc1)CCCO3` [Compound 504], for which the IC50 (as a rule, the concentration at which inhibition is half-maximal) was 0.00537 µM.
On the same count and under the same terms, next, `CCc1cc2cc(C(=O)C3CCC(OC)CC3)c(C)cc2nc1Cl` (stereo not shown) [Compound 210]: 0.00484 µM.
In the case of `COC1CCC(F)(C(=O)c2ccc3nc4c(cc3c2)CCCO4)CC1` (stereo not shown) [Compound 488], the IC50 was 0.00537 µM.
The same measure, in the same setting: with `O=C(c1ccc2nc3c(cc2c1)CCS3)C1CCCCC1` [Compound 427] the figure was 0.00767 µM.

Staying with this series, now noted: inhibition of glutamate-induced intracellular Ca2+ rise, CHO cells expressing mGlu1 receptor; compounds with pIC50 between 7 and 8.
`C#Cc1nc2ccc(C(=O)C3CCC(OC)CC3)cc2cc1CC` (stereo not shown) [Compound 15]: it took 0.0117 µM to reach half-maximal inhibition (IC50).
The same measure, in the same setting: next, `CC1CCC(C(=O)c2ccc3nc4c(cc3c2)CCS4)CC1` (stereo not shown) [Compound 431]: 0.0245 µM; `CCc1cc2cc(C(=O)C3CCC(OC)CC3)ccc2nc1NC(=O)c1ccc(OC)cc1` (stereo not shown) [Compound 323]: 0.0525 µM; `CN(C)CC(C(=O)c1ccc2nc3c(cc2c1)CCS3)c1ccccc1` (stereo not shown) [Compound 442]: 0.0933 µM.
`COC1CCCC(C(=O)c2ccc3nc4c(cc3c2)CCCO4)C1` (stereo not shown) [Compound 440] showed an IC50 of 0.0117 µM.
In the case of `COC1CCC(C(=O)c2ccc3nc4c(cc3c2)CCN4C)CC1` (stereo not shown) [Compound 423], the midpoint of inhibition, the IC50, lay at 0.0129 µM.
The same measure, in the same setting: next, `CCc1cc2cc(C(=O)CC3CC4CCC3C4)ccc2nc1C` (stereo not shown) [Compound 303]: 0.0603 µM; `CCc1cc2cc(C(=O)[C@H]3CC[C@@H](OC)CC3)ccc2nc1NC(=O)C1CCN(C(C)=O)CC1` [Compound 193]: 0.0617 µM.
On the same count and under the same terms, with `O=C(c1ccc2nc3c(cc2c1)CCCO3)C1CC=CCC1` (stereo not shown) [Compound 435] the figure was 0.0417 µM; with `O=C(c1ccc2nc3c(cc2c1)CCS3)C1CC2CCC1C2` (stereo not shown) [Compound 447], 0.0191 µM.
In turn, `O=C(Cc1ccccc1)c1ccc2nc3c(cc2c1)CCC3` [Compound 446] showed an IC50 of 0.0275 µM.
On the same count and under the same terms, with `CCc1cc2cc(C(=O)Cc3ccccc3)ccc2nc1F` [Compound 527] the figure was 0.0589 µM.
The same measure, in the same setting: with `O=C(c1ccc2nc3c(cc2c1)CCCO3)C1CC2C=CC1C2` (stereo not shown) [Compound 461] the figure was 0.0224 µM.
Same read-out and setting: next, `CCc1cc2cc(C(=O)[C@H]3CC[C@@H](OC)CC3)ccc2nc1NC(=O)c1ccc(=O)[nH]c1` [Compound 191]: 0.0692 µM.
Take `CCc1cc2cc(C(=O)[C@H]3CC[C@@H](OC)CC3)ccc2nc1N(C)C` [Compound 128]: the IC50 was 0.0302 µM.
Still for that read-out and setting: with `CCc1cc2cc(C(=O)Cc3ccc(F)c(F)c3)ccc2nc1C` [Compound 277] the figure was 0.0363 µM; with `O=C(Cc1ccccc1)c1ccc2nc3sccc3cc2c1` [Compound 462], 0.0126 µM; with `CCc1cc2cc(C(=O)C3CCC(OC)CC3)ccc2nc1NC(=O)CCSC` (stereo not shown) [Compound 338], 0.0123 µM.
As to `O=C(c1ccc2nc3c(cc2c1)CCCS3)C1COc2ccccc2O1` (stereo not shown) [Compound 512], the IC50 was 0.0741 µM.
The molecule `O=C(CC1CC2CCC1C2)c1ccc2nc(Cl)ccc2c1` (stereo not shown) [Compound 313] gave an IC50 of 0.0447 µM.
On the same count and under the same terms, with `CC1(C(=O)c2ccc3nc4c(cc3c2)CCCO4)CC2CCC1C2` (stereo not shown) [Compound 494] the figure was 0.0295 µM; with `CO[C@H]1CC[C@@H](C(=O)c2ccc3nc(C)ccc3c2)CC1` [Compound 238], 0.0162 µM; with `CC1CCC(C(=O)c2ccc3nc4c(cc3c2)CCS4)CC1` (stereo not shown) [Compound 430], 0.0407 µM.
Regarding `CCc1cc2cc(C(=O)C3(C)CCC(OC)CC3)ccc2nc1C` (stereo not shown) [Compound 242], the IC50 is 0.0174 µM.
Still for that read-out and setting: next, `CCc1cc2cc(C(=O)C3CCC(OC)CC3)ccc2nc1NC(=O)C1CCCO1` (stereo not shown) [Compound 356]: 0.038 µM; `CCc1cc2cc(C(=O)C3(c4ccccc4)CC3)ccc2nc1C` [Compound 283]: 0.0955 µM; `CCc1cc2cc(C(=O)C3CCC(OC)CC3)ccc2nc1NC(=O)CSCc1ccccc1` (stereo not shown) [Compound 332]: 0.0676 µM.
As for `O=C(CC1(F)CC2CCC1C2)c1ccc2nc3c(cc2c1)CCCO3` (stereo not shown) [Compound 482], half-maximal inhibition (IC50) was put at 0.0457 µM.
For the molecule `CCc1cc2cc(C(=O)[C@H]3CCC[C@H](OC)C3)ccc2nc1Cl` (relative stereo) [Compound 239], half-maximal inhibition (IC50) was put at 0.02 µM.
On the same count and under the same terms, with `CCc1cc2cc(C(=O)[C@H]3CC[C@@H](OC)CC3)ccc2[nH]c1=S` [Compound 36] the figure was 0.1 µM.

The target in the next series is T2, rat mGlu1a receptor (Rattus norvegicus, UniProt P23385).
T2 construct: host or cells: CHO-dhfr- cells
T2 sequence (P23385 19-1199): as above
The experiment in a line: [3H]Compound A binding to rat mGlu1a receptor CHO-dhfr− membranes (saturation, kinetics, inhibition). As to conditions: rat mGlu1a receptor CHO-dhfr− membranes.
In the case of `N[C@H](C(=O)O)c1ccc(C(=O)O)c(O)c1` [(S)-4C-3HPG, reference compound], the “inhibition of [3H]Compound A binding (in words)” value is given as “did not inhibit”.

Tested on in a further series: not given
Assay: not given
Conditions: not given
Take `Cc1cc2cc(C(=O)C3CCCCC3)ccc2[nH]c1=O` [Compound 50, 6-(cyclohexylcarbonyl)-3-methyl-2(1H)-quinolinone]: the melting point (commonly the temperature of the solid-liquid transition) turned out to be 256.1 °C.
`CCc1cc2cc(C(=O)C3CCC(OC)CC3)ccc2nc1F` (stereo not shown) [Compound 19]: the melting point is 92 °C.
Still for that read-out and setting: with `CCc1cc2cc(C(=O)[C@H]3CC[C@H](OC)CC3)ccc2nc1F` [Compound 20] the figure was 114 °C; with `C#Cc1nc2ccc(C(=O)C3CCC(OC)CC3)cc2cc1CC` (stereo not shown) [Compound 15], 132 °C and 133 °C.
On the same count and under the same terms, next, `CCc1cc2cc(C(=O)C3CCC(OC)CC3)ccc2nc1-c1ccsc1` (stereo not shown) [Compound 31]: 113 °C.
The same measure, in the same setting: next, `CCc1cc2cc(C(=O)[C@H]3CC[C@@H](OC)CC3)ccc2nc1Cl` [Compound 4]: 123 °C; `CCc1cc2cc(C(=O)[C@H]3CC[C@@H](OC)CC3)ccc2nc1C#N` [Compound 22]: 138 °C; `CCc1cc2cc(C(=O)C3CCC(OC)CC3)ccc2nc1C(C)=O` (stereo not shown) [Compound 6]: 108 °C.
Regarding `CCOC(=O)c1cc2cc(C(=O)Cc3ccccc3)ccc2nc1C` [Compound 306], the melting point is 136 °C.
On the same count and under the same terms, with `CCc1cc2cc(-c3cc4c(o3)CCCC4)ccc2nc1C` (as salt: HCl) [Compound 526] the figure was 248 °C; with `CCc1cc2cc(C(=O)C3Cc4ccccc4C3)ccc2nc1Cl` [Compound 3], 145 °C.
Still for that read-out and setting: next, `CCc1cc2cc(-c3cc4ccccc4o3)ccc2nc1C` [Compound 515]: 134 °C.
Still for that read-out and setting: with `C=Cc1nc2ccc(C(=O)C3CCC(OC)CC3)cc2cc1CC` (stereo not shown) [Compound 28] the figure was 108 °C; with `CCc1cc2cc(/C=C/c3ccccc3)ccc2nc1C` [Compound 471], 140 °C; with `CCc1cc2cc(C(=O)C3CCC(OC)CC3)ccc2nc1-c1cccs1` (stereo not shown) [Compound 30], 142 °C.
`CCc1cc2cc(C(=O)[C@H]3CC[C@@H](OC)CC3)ccc2nc1I` [Compound 21] had a melting point of 110 °C.
The same measure, in the same setting: next, `CCc1cnc2ccc(C(=O)C3CCC(OC)CC3)cc2c1` (stereo not shown) [Compound 25]: 88 °C; `CCc1cc2cc(C(=O)CC(C)C)ccc2nc1Cl` [Compound 2]: 82 °C; `CCc1cc2cc(C(=O)C3CCC(OC)CC3)ccc2[nH]c1=O` (stereo not shown) [Compound 9]: 226 °C.
The same measure, in the same setting: with `CCc1cc2cc(C(=O)C3CCC(OC)CC3)ccc2nc1-c1ccccc1` (stereo not shown) [Compound 29] the figure was 112 °C.
Still for that read-out and setting: next, `CCc1cc2cc(/C(=N\N)C3CCC(OC)CC3)ccc2nc1OC` (stereo not shown) [Compound 53]: 110 °C; `c1ccc2c(-c3ccc4nc5c(cc4c3)CCS5)noc2c1` [Compound 514]: 185 °C; `CCc1cc2cc(C(=O)[C@H]3CC[C@@H](OC)CC3)ccc2nc1NCCOC` [Compound 10]: 115 °C.
